Data: publication PMC4385830, “Group I Paks as therapeutic targets in NF2-deficient meningioma” (Oncotarget, 2015)

Columns and labels:
[1] = tested on: KT21-MG1-Luc5D intracranial xenografts; experiment: Orthotopic meningioma model, bioluminescence imaging; settings: for loss of body weight compared with control littermates: SCID mice bearing KT21
Excerpt: Eight-week-old SCID mice were anesthetized with ketamine and their heads were stabilized in a small animal stereotaxic instrument. A midline sagittal incision was made on the cranial skin. A burr hole was drilled in the skull with coordinated 1.5 mm anterior and 1.5 mm lateral to the right from the bregma and a 5-μl Hamilton syringe loaded with cells was slowly inserted through the burr hole and ~0.5 mm downward to the skull base. The incision was closed using surgical absorbable gut suture.
Mice transplanted with meningioma cells were imaged using Xenogen IVIS Spectrum (Caliper, MA). Mice were injected intraperitoneally with Rediject D-Luciferin Ultra at 150 mg/kg under anesthetized with isofluorane. Luciferase activity was measured and all bioluminescence imaging was conducted when perk signal was reached. Once tumors were established (~3 weeks post-transplantation), mice were divided into groups for shRNA studies or drug treatments.
For drugs treatment, mice were dosed with Pak inhibitors daily for 14–21 days and tumor growth was monitored every week by BLI. Mean luminescence for each treatment groups (n = 5) was calculated as described previously.

RSK4 = biological target: T1, RSK4 (Homo sapiens, UniProt Q9UK32); experiment: Kinase selectivity, Z'-LYTE; assay type: biochemical
T1 construct: purchased Invitrogen (Life Technologies) SelectScreen Z'-LYTE
Method in brief: (§1)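 Fluorescence read-out reflects differential proteolytic cleavage of phosphorylated versus non-phosphorylated peptide in a coupled-enzyme format. Reactions use recombinant enzymes with kinase-specific optimized mixtures.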

CDK2/cyclin A = biological target: T2, CDK2/cyclin A (Homo sapiens, UniProt P24941); experiment: Kinase selectivity, Z'-LYTE; assay type: biochemical
T2 construct: purchased Invitrogen (Life Technologies) SelectScreen Z'-LYTE
Method in brief: as §1

RET = biological target: T3, RET (Homo sapiens, UniProt P07949); experiment: Kinase selectivity, Z'-LYTE; assay type: biochemical
T3 construct: purchased Invitrogen (Life Technologies) SelectScreen Z'-LYTE
Method in brief: as §1

RSK3 = biological target: T4, RSK3 (Homo sapiens, UniProt Q15349); experiment: Kinase selectivity, Z'-LYTE; assay type: biochemical
T4 construct: purchased Invitrogen (Life Technologies) SelectScreen Z'-LYTE
Method in brief: as §1

Ben-Men cells = experiment: Immunoblot of signaling pathways; assay type: cell-based
Method: Protein concentration was determined, and equal amount of total proteins were separated by SDS-PAGE. […] GAPDH and β-actin were used as loading control.

CDK6/p25 = biological target: T5, CDK6/p25 (Homo sapiens, UniProt Q00535); experiment: Kinase selectivity, Z'-LYTE; assay type: biochemical
T5 construct: purchased Invitrogen (Life Technologies) SelectScreen Z'-LYTE
Method in brief: as §1

AMPKA2/B1/G1 = biological target: T6, AMPKA2/B1/G1 (Homo sapiens, UniProt P54646); experiment: Kinase selectivity, Z'-LYTE; assay type: biochemical
T6 construct: purchased Invitrogen (Life Technologies) SelectScreen Z'-LYTE
Method in brief: as §1

AMPKA1/B1/G1 = biological target: T7, AMPKA1/B1/G1 (Homo sapiens, UniProt Q13131); experiment: Kinase selectivity, Z'-LYTE; assay type: biochemical
T7 construct: purchased Invitrogen (Life Technologies) SelectScreen Z'-LYTE
Method in brief: as §1

AKT2 (PKB beta) = biological target: T8, AKT2 (PKB beta) (Homo sapiens, UniProt P31751); experiment: Kinase selectivity, Z'-LYTE; assay type: biochemical
T8 construct: purchased Invitrogen (Life Technologies) SelectScreen Z'-LYTE
Method in brief: as §1

DYRK1B = biological target: T9, DYRK1B (Homo sapiens, UniProt Q9Y463); experiment: Kinase selectivity, Z'-LYTE; assay type: biochemical
T9 construct: purchased Invitrogen (Life Technologies) SelectScreen Z'-LYTE
Method in brief: as §1

NTRK1 (TRKA) = biological target: T10, NTRK1 (TRKA) (Homo sapiens, UniProt P04629); experiment: Kinase selectivity, Z'-LYTE; assay type: biochemical
T10 construct: purchased Invitrogen (Life Technologies) SelectScreen Z'-LYTE
Method in brief: as §1

Pak1 [2] = biological target: T11, Pak1 (Homo sapiens, UniProt Q13153); experiment: Kinase selectivity, Z'-LYTE; assay type: biochemical
Method in brief: as §1

ABL2 (Arg) = biological target: T12, ABL2 (Arg) (Homo sapiens, UniProt P42684); experiment: Kinase selectivity, Z'-LYTE; assay type: biochemical
T12 construct: purchased Invitrogen (Life Technologies) SelectScreen Z'-LYTE
Method in brief: as §1

KT21 cells = experiment: Immunoblot of signaling pathways; assay type: cell-based
Method: Protein concentration was determined, and equal amount of total proteins were separated by SDS-PAGE. Antibodies used included those for Pak1 (2602), Pak2 (2608), Pak3 (2609), Pak4 (3242), phospho-Pak4-6 (3241), Mek1 (9122), Erk (9102), phospho-Erk1/2 (pThr202/pTyr204; 9101), Akt (9272), phospho-Akt (pThr308; 9275), S6 (2217), phospho-S6 (pSer235/pSer236; 4857), phospho-β-Catenin (pSer675; 4176), and cyclin D1 (2978) from Cell Signaling Technology; β-Catenin (610154) from BD Transduction Laboratories; and phospho-Pak (Ser141; 44940G) and phospho-Mek (Ser298; 44460G) from Invitrogen. GAPDH and β-actin were used as loading control.

Pak1 [3] = biological target: T11, Pak1; experiment: Pak1 inhibition in vitro; assay type: biochemical; settings: read-out: IC50 values towards Pak1

T11 sequence (Q13153 whole entry): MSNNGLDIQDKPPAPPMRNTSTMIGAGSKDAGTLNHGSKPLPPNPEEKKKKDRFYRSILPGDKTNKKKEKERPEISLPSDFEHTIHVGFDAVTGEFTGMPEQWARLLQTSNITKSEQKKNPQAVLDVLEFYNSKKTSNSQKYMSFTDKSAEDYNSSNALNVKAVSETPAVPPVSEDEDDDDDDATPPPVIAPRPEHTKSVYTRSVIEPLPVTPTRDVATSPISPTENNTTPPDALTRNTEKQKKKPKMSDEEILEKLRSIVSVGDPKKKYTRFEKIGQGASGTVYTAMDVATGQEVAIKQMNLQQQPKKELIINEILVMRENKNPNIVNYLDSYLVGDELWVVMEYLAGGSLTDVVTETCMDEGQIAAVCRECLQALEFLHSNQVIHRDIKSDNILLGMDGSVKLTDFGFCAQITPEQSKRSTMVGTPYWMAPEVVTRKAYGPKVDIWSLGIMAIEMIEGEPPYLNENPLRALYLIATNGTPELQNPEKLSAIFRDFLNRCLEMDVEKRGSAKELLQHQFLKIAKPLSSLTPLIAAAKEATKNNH
T12 sequence (P42684 whole entry): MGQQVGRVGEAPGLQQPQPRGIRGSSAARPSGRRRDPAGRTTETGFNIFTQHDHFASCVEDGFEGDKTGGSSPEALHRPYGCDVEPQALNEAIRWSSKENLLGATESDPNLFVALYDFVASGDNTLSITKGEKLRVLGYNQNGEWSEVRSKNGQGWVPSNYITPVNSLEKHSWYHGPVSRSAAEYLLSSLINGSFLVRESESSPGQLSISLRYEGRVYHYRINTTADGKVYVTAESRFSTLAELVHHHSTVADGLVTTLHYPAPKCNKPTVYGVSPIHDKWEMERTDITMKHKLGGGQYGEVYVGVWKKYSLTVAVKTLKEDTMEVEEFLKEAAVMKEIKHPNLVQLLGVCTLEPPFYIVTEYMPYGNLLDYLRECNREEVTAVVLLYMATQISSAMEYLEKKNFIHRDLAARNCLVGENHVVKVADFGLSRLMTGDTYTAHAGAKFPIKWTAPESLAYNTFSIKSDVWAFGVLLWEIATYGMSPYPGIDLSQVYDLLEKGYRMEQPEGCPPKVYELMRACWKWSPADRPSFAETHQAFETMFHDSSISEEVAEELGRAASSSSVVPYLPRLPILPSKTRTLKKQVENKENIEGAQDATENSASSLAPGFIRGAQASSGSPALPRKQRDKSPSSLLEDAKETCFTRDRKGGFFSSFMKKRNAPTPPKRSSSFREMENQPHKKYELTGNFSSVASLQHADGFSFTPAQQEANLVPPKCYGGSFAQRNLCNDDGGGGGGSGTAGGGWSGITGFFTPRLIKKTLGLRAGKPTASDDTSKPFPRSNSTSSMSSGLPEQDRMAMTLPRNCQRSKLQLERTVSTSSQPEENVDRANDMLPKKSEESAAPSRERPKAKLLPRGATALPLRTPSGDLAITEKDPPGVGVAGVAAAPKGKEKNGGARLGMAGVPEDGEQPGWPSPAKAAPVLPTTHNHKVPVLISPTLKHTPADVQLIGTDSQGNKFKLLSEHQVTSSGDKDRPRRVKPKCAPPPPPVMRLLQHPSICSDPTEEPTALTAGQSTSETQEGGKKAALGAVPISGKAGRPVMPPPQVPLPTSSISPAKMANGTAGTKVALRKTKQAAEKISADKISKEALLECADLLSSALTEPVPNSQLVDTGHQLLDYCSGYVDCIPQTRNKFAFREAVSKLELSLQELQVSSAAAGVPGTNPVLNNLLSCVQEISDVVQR
T3 sequence (P07949 29-1114): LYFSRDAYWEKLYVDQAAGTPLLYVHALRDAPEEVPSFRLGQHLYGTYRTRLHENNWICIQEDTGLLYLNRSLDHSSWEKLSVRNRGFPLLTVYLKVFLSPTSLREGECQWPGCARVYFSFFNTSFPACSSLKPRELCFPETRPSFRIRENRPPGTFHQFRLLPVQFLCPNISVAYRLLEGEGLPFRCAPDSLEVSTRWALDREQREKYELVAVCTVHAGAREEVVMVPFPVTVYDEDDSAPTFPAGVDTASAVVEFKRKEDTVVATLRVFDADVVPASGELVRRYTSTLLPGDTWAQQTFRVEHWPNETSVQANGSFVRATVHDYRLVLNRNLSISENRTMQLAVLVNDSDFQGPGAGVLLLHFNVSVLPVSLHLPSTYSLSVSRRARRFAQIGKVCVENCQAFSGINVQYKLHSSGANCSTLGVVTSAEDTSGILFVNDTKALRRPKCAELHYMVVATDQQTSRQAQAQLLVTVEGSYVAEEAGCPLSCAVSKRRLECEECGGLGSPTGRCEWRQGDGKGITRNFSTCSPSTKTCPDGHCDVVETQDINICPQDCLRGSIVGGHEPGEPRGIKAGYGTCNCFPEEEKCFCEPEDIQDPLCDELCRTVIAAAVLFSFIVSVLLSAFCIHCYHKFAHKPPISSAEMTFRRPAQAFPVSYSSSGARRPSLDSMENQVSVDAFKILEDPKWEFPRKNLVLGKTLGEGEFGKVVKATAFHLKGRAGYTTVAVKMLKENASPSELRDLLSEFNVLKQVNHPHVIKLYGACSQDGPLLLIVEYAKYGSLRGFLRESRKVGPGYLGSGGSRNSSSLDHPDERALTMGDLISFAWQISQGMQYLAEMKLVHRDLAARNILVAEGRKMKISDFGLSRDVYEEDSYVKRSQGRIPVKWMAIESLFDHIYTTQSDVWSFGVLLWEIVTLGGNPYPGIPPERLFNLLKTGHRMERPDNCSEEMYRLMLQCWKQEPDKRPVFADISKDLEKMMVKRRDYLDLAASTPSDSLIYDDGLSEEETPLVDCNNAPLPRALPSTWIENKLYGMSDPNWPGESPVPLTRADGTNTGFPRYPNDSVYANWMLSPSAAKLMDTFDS
T8 sequence (P31751 whole entry): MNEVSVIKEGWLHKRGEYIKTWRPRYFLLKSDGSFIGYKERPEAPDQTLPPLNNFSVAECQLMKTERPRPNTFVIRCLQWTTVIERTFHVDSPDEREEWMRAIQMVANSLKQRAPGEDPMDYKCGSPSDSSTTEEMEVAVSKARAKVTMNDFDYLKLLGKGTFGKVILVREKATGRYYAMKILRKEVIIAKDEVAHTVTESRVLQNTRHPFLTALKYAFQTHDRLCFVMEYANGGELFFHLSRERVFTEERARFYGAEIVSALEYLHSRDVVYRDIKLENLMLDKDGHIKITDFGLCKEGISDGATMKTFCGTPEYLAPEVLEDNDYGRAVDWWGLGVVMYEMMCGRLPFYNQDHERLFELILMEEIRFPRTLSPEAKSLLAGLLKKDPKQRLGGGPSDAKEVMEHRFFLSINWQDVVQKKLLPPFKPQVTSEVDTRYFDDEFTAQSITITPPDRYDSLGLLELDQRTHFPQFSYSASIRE
T9 sequence (Q9Y463 whole entry): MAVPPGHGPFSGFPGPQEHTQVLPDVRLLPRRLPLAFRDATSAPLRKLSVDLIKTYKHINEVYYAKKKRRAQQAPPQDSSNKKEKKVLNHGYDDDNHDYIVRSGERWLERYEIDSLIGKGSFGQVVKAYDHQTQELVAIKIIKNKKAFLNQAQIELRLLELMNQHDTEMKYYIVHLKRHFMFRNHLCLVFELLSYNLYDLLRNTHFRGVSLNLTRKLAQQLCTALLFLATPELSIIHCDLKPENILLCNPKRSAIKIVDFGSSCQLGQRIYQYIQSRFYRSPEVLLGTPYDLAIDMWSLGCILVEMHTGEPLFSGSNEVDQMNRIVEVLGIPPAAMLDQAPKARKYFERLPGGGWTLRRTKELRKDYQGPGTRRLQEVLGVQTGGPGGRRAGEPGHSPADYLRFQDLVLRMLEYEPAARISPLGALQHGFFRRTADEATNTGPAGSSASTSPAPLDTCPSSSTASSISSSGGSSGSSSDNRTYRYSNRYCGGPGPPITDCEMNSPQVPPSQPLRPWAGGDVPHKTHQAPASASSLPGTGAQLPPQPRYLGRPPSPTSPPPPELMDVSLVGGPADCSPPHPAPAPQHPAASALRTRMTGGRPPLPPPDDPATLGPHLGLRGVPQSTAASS
T5 sequence (Q00535 whole entry): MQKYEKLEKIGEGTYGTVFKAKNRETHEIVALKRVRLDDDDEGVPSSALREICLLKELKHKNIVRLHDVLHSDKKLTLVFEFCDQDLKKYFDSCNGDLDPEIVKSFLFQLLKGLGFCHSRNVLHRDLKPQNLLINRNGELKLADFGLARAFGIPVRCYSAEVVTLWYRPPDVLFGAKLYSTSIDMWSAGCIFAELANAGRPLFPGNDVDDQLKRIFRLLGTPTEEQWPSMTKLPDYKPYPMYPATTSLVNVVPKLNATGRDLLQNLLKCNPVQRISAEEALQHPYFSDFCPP
T5 sequence (Q15078 99-307 partner limits assumed): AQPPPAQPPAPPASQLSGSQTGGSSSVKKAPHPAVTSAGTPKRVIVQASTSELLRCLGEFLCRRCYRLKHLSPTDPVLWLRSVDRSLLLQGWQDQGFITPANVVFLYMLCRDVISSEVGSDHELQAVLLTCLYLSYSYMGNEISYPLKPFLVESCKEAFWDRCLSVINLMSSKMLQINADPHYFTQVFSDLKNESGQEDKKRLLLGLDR

CCn1c(=O)c(-c2ccc(-c3cncc(C)n3)cc2Cl)cc2cnc(NCCC3CCN(C)CC3)nc21 [Frax1036]
loss of body weight compared with control littermates ([1]; Frax597 90 mg/kg/day, Frax1036 30 mg/kg/day, oral gavage): not seen | reduction in BMI signals ([1]; SCID mice, KT21, oral gavage 30 mg/kg/day, 2 weeks, P = 0.042): 37% | % inhibition of activity (RSK4): 9% | % inhibition of activity (CDK2/cyclin A): −14% | % inhibition of activity (RET): 8% | % inhibition of activity (RSK3): 26% | basal level (expression) of β-catenin (Ben-Men cells): induction

Cc1nc(Nc2[nH]nc3c2CN(C(=O)N[C@H](CN(C)C)c2ccccc2)C3(C)C)c2sccc2n1 [PF3758309, reference compound]
% inhibition of activity (CDK6/p25): 18% | % inhibition of activity (AMPKA2/B1/G1): 100% | % inhibition of activity (AMPKA1/B1/G1): 100% | % inhibition of activity (AKT2 (PKB beta)): 0% | % inhibition of activity (DYRK1B): 7% | % inhibition of activity (NTRK1 (TRKA)): 73% | % inhibition of activity (Pak1 [2]): 100% | % inhibition of activity (ABL2 (Arg)): 77% | total and phospho-protein levels of β-catenin (KT21 cells): only reduction on phosphorylation status | basal level (expression) of β-catenin (Ben-Men cells): induction

CCn1c(=O)c(-c2ccc(-c3noc(C)n3)cc2Cl)cc2cnc(Nc3ccc(C4CCN(C)CC4)cc3)nc21 [Frax716]
loss of body weight compared with control littermates ([1]; oral gavage 20 mg/kg/day): > 10% | reduction on bioluminescence ([1]; SCID mice, KT21, oral gavage 20 mg/kg/day, 2 weeks, P = 0.028): 60% | IC50 (Pak1 [3]): 2 nM | % inhibition of activity (CDK6/p25): 3% | % inhibition of activity (AMPKA2/B1/G1): 29% | % inhibition of activity (AMPKA1/B1/G1): 13% | % inhibition of activity (AKT2 (PKB beta)): 9% | % inhibition of activity (DYRK1B): 13% | % inhibition of activity (CDK2/cyclin A): 0% | % inhibition of activity (RET): 91% | % inhibition of activity (NTRK1 (TRKA)): 92% | % inhibition of activity (Pak1 [2]): 95% | % inhibition of activity (ABL2 (Arg)): 82% | basal level (expression) of β-catenin (Ben-Men cells): did not impact | phosphorylation of β-catenin (Ben-Men cells): diminished
